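96-well plates; 48 h exposure; 5 concentrations. Endpoints by linear interpolation between flanking doses. Not reached: highest tested concentration assigned. Abbreviation: GI50, concentration required for 50% inhibition of growth. Definition used: TGI = concentration required for complete inhibition of growth.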
Tests used:
Assay in all cases: NCI-60 cell line screen, 48 h
UACC-257 melanoma = tested on: UACC-257 melanoma
SK-MEL-5 melanoma = tested on: SK-MEL-5 melanoma
NCI-H522 lung = tested on: NCI-H522 lung
CCRF-CEM leukemia = tested on: CCRF-CEM leukemia
SK-MEL-28 melanoma = tested on: SK-MEL-28 melanoma
SF-295 CNS = tested on: SF-295 CNS
T-47D breast = tested on: T-47D breast
ACHN renal = tested on: ACHN renal
OVCAR-8 ovarian = tested on: OVCAR-8 ovarian
A498 renal = tested on: A498 renal
RXF 393 renal = tested on: RXF 393 renal
M14 melanoma = tested on: M14 melanoma
SN12C renal = tested on: SN12C renal
SK-OV-3 ovarian = tested on: SK-OV-3 ovarian
786-0 renal = tested on: 786-0 renal
RPMI-8226 leukemia = tested on: RPMI-8226 leukemia
MCF7 breast = tested on: MCF7 breast
PC-3 prostate = tested on: PC-3 prostate
MDA-MB-435 = tested on: MDA-MB-435
A549 NSCLC = tested on: A549 NSCLC
HL-60(TB) leukemia = tested on: HL-60(TB) leukemia
HCT-116 colon = tested on: HCT-116 colon
TK-10 renal = tested on: TK-10 renal
COLO 205 colon = tested on: COLO 205 colon
SF-539 CNS = tested on: SF-539 CNS
LOX IMVI melanoma = tested on: LOX IMVI melanoma
SW-620 colon = tested on: SW-620 colon
NCI-H23 lung = tested on: NCI-H23 lung
KM12 colon = tested on: KM12 colon
BT-549 breast = tested on: BT-549 breast
MOLT-4 leukemia = tested on: MOLT-4 leukemia
U251 CNS = tested on: U251 CNS
SNB-75 CNS = tested on: SNB-75 CNS
MALME-3M melanoma = tested on: MALME-3M melanoma
UACC-62 melanoma = tested on: UACC-62 melanoma
K-562 leukemia = tested on: K-562 leukemia
NCI-H460 lung = tested on: NCI-H460 lung
IGROV1 ovarian = tested on: IGROV1 ovarian
CAKI-1 renal = tested on: CAKI-1 renal
OVCAR-4 ovarian = tested on: OVCAR-4 ovarian
HS 578T breast = tested on: HS 578T breast
OVCAR-3 ovarian = tested on: OVCAR-3 ovarian
EKVX NSCLC = tested on: EKVX NSCLC
HCC-2998 colon = tested on: HCC-2998 colon
SK-MEL-2 melanoma = tested on: SK-MEL-2 melanoma
SF-268 CNS = tested on: SF-268 CNS
HT29 colon = tested on: HT29 colon
HOP-62 NSCLC = tested on: HOP-62 NSCLC
OVCAR-5 ovarian = tested on: OVCAR-5 ovarian
NCI-H226 lung = tested on: NCI-H226 lung
UO-31 renal = tested on: UO-31 renal
DU-145 prostate = tested on: DU-145 prostate
SNB-19 CNS = tested on: SNB-19 CNS
HCT-15 colon = tested on: HCT-15 colon
SR leukemia = tested on: SR leukemia
NCI/ADR-RES ovarian = tested on: NCI/ADR-RES ovarian
MDA-MB-231 breast = tested on: MDA-MB-231 breast

## NCc1ccc(-n2c(-c3nonc3N)nc3cnccc32)cc1
UACC-257 melanoma
  GI50: > 25 µM
  TGI: > 25 µM
SK-MEL-5 melanoma
  GI50: 9.25 µM
  TGI: > 25 µM
NCI-H522 lung
  GI50: 7.66 µM
  TGI: > 25 µM
CCRF-CEM leukemia
  GI50: 6.26 µM
  TGI: > 25 µM
SK-MEL-28 melanoma
  GI50: 11.4 µM
  TGI: > 25 µM
SF-295 CNS
  GI50: 16 µM
  TGI: > 25 µM
T-47D breast
  GI50: 8.48 µM
  TGI: > 25 µM
ACHN renal
  GI50: 5.68 µM
  TGI: > 25 µM
OVCAR-8 ovarian
  GI50: 6.76 µM
  TGI: > 25 µM
A498 renal
  GI50: 1.38 µM
  TGI: > 22.1 µM
RXF 393 renal
  GI50: 1.76 µM
  TGI: 11.3 µM
M14 melanoma
  GI50: > 25 µM
  TGI: > 25 µM
SN12C renal
  GI50: 7.61 µM
  TGI: > 25 µM
SK-OV-3 ovarian
  GI50: > 25 µM
  TGI: > 25 µM
786-0 renal
  GI50: 7.51 µM
  TGI: > 25 µM
RPMI-8226 leukemia
  GI50: > 23.2 µM
  TGI: > 25 µM
MCF7 breast
  GI50: 5.19 µM
  TGI: > 25 µM
PC-3 prostate
  GI50: > 19.3 µM
  TGI: > 25 µM
MDA-MB-435
  GI50: 20.1 µM
  TGI: > 25 µM
A549 NSCLC
  GI50: 6.86 µM
  TGI: > 25 µM
HL-60(TB) leukemia
  GI50: > 11.8 µM
  TGI: > 25 µM
HCT-116 colon
  GI50: 2.69 µM
  TGI: > 25 µM
TK-10 renal
  GI50: 0.385 µM
  TGI: > 25 µM
COLO 205 colon
  GI50: 5.53 µM
  TGI: > 25 µM
SF-539 CNS
  GI50: 2.57 µM
  TGI: > 23.6 µM
LOX IMVI melanoma
  GI50: 17.1 µM
  TGI: > 25 µM
SW-620 colon
  GI50: 7.1 µM
  TGI: > 25 µM
NCI-H23 lung
  GI50: > 25 µM
  TGI: > 25 µM
KM12 colon
  GI50: 8.79 µM
  TGI: > 25 µM
BT-549 breast
  GI50: 0.964 µM
  TGI: > 25 µM
MOLT-4 leukemia
  GI50: 12.3 µM
  TGI: > 25 µM
U251 CNS
  GI50: 8.94 µM
  TGI: > 25 µM
SNB-75 CNS
  GI50: 0.291 µM
  TGI: > 25 µM
MALME-3M melanoma
  GI50: > 25 µM
  TGI: > 25 µM
UACC-62 melanoma
  GI50: > 25 µM
  TGI: > 25 µM
K-562 leukemia
  GI50: > 25 µM
  TGI: > 25 µM
NCI-H460 lung
  GI50: 13.7 µM
  TGI: > 25 µM
IGROV1 ovarian
  GI50: > 25 µM
  TGI: > 25 µM
CAKI-1 renal
  GI50: 2.27 µM
  TGI: > 25 µM
OVCAR-4 ovarian
  GI50: > 25 µM
  TGI: > 25 µM
HS 578T breast
  GI50: 0.674 µM
  TGI: > 25 µM
OVCAR-3 ovarian
  GI50: 7.13 µM
  TGI: > 25 µM
EKVX NSCLC
  GI50: > 25 µM
  TGI: > 25 µM
HCC-2998 colon
  GI50: 23.8 µM
  TGI: > 25 µM
SK-MEL-2 melanoma
  GI50: > 25 µM
  TGI: > 25 µM
SF-268 CNS
  GI50: 5.26 µM
  TGI: > 25 µM
HT29 colon
  GI50: 7.58 µM
  TGI: > 25 µM
HOP-62 NSCLC
  GI50: > 14.4 µM
  TGI: > 25 µM
OVCAR-5 ovarian
  GI50: 11.7 µM
  TGI: > 25 µM
NCI-H226 lung
  GI50: 0.912 µM
  TGI: > 25 µM
UO-31 renal
  GI50: 0.442 µM
  TGI: > 25 µM
DU-145 prostate
  GI50: 11.4 µM
  TGI: > 25 µM
SNB-19 CNS
  GI50: > 25 µM
  TGI: > 25 µM
HCT-15 colon
  GI50: 6.85 µM
  TGI: > 25 µM
SR leukemia
  GI50: 2.67 µM
  TGI: > 25 µM
NCI/ADR-RES ovarian
  GI50: > 25 µM
  TGI: > 25 µM
MDA-MB-231 breast
  GI50: > 25 µM
  TGI: > 25 µM

— PubChem BioAssay (NCI)
